Common to all, as to format: in vivo
For test [1], the system named is Sweetpotato Whitefly, Bemisia tabaci. Kind of test: Testing with Sweetpotato Whitefly, track sprayer application on egg-infested cotton plants. The conditions noted are these: for LC90: sweetpotato whitefly on cotton plants, track sprayer, assessment at 13 days after application. On the procedure: Greenhouse-grown cotton plants (ca. five weeks old, grown in 7×7 cm pots containing ca. 231 cm^3 of potting soil mixture) were prepared for whitefly infestation by removing all foliage except the first or second pair of fully expanded true leaves. These plants are then moved into the whitefly colony room of the insectary (temperature maintained at 27° C.), where they are surrounded by cotton or velvetleaf plants infested with all life stages of B. tabaci. Initial movement of B. tabaci adults onto the prepared cotton plants is encouraged by gently shaking the foliage of the surrounding infested cotton and velvetleaf foliage using a 1.5-meter long willow branch. The prepared plants are left in place within the whitefly colony, where they are exposed to adult female B. tabaci oviposition for ca. 48 hours.
At the end of the oviposition exposure period, adult whiteflies are dislodged from the prepared plants by passing compressed air just above the leaves while the leaves are gently disturbed by hand for ca. 15 seconds. The prepared plants, which are now infested with eggs of B. tabaci, are removed from the insectary and any remaining adults are removed from the foliage with a hand-held vacuum fitted with a cage to trap insects. Infested plants are then selected at random and arranged into treatment groups of two or three plants each. Leaves of plants to receive different treatments are separated by a distance of at least 5 cm.
Compounds are applied within 24 hours of removing cotton plants from exposure to oviposition within the B. tabaci colony. Immediately after application, plants are moved to a holding room with a temperature of 30° C. and relative humidity of ca. 60%. Compound efficacy was observed by an assessment at 13 days after application. At this evaluation time, whitefly nymphs that have successfully developed to the third and fourth nymphal stadia can be easily seen on the underside of each cotton leaf with the aid of an illuminated magnifying lens (equipped with a circular fluorescent tube). […]

Test [2] deals with Cotton Aphid (Aphis gossypll). Nature of the test: Testing with Cotton Aphid, track sprayer application on infested cotton plants. The conditions noted are these: for LC90: cotton aphid on cotton plants, track sprayer approx. 200 L/ha, count of living non-winged aphids. On the procedure: Alcala cotton plants were grown from seed in 7-cm pots under greenhouse conditions until they reached 35 to 40 cm in height; approximately four weeks old with 5 to 6 true leaves. The plants were then stripped of all foliage except for the two uppermost true leaves. Two days prior to application, heavily infested leaf sections from a cotton aphid colony were cut and placed on each untreated leaf surface. Over the two days, all stages of the aphids abandon the excised host material and migrate to the succulent growth, predominantly the lower surface of the leaves. Plants were checked prior to application for even infestation levels. Treatments consisted of 4 replicates (plants) each with 2 leaves per plant.
Formulation of technical compound was in a solvent solution. For the top rate of each compound, 20 milligrams of technical material was dissolved in 2 milliliters (ml) of a 9:1 mixture of acetone:ethanol solvent. Once dissolved, an additional 18-ml of the solvent mix was added to yield a 1 mg/ml spray solution. Additional rates were then prepared by serial dilution.
Application was made by an automated tracksprayer (RC-Insecticide #1, Serial MS-9′-002, MANDEL Scientific Company Ltd.) equipped with a single TX6 SS hollow cone nozzle to simulate an over-the-top application by a boom sprayer. Spray pressure was set at 50 PSI, and the nozzle head was set approximately 40 cm above the leaf surface (depending on the leaf position it ranged from 35-45 cm). Track velocity and all other settings were calibrated to deliver approximately 200 L/ha. After application and drying, the plants were transferred and kept in controlled environment until assessment.
Assessment of compound efficacy is evaluated by counting all living non-winged stage aphids infesting each replicate using a dissecting microscope.

Test [3] has as its system Cat Flea (Cntenocephalides felis). Kind of test: Testing with Cat Flea, treated media infested with eggs. Conditions: eggs held five weeks, adult fleas counted. The method, then:
Media is prepared by mixing 1 part dried bovine blood, 4 parts ground dog food pellets, and 95 parts clean sand. Compounds are dissolved in acetone and further diluted in acetone to yield the required range of concentrations. The acetone solutions are applied to measured amounts of media in small dishes. Final concentrations are expressed as micrograms of compound per gram of media. After the acetone has dried, the treated media is dispensed into small glass vials and infested with 5 to 10 cat flea (Cntenocephalides fells) eggs. The vials are loosely capped and held under controlled conditions for five weeks. Activity is assessed based on the average number of adult cat fleas present in the treated vials compared to the average number of adult cat fleas in the media

Molecules are shown by their SMILES.

Turning to `O=[N+]([O-])/C=C1\NCCN1Cc1ccc(Cl)nc1` [Comparative Compound A], the LC90 in test [1] is on record as 6.66 grams per hectare; in test [2], 9.1 grams per hectare. For the same compound, the “times more Comparative Compound A needed to reach the LC90 level than Compound Three” value in test [1] (sweetpotato whitefly, ratio of LC90 values) is given as approximately 2.7 times; in test [2] (cotton aphid, ratio of LC90 values), approximately 11.7 times.
For the compound `CN/C(=C(/C=O)[N+](=O)[O-])N(C)Cc1ccc(Cl)nc1` [Compound One], the “control of cat fleas” value in test [3] (0.1 μg/g rate in media) was 100%.
On to `O=C/C(=C1/NCCN1Cc1ccc(Cl)nc1)[N+](=O)[O-]` [Compound Three], for which the entries for the “control of cat fleas” value in test [3] (0.01 μg/g rate in media) and in test [3] (0.1 μg/g rate in media) were 81% and 96%, respectively. Also, the LC90 result in test [1] is listed as “less than 2.52 grams per hectare”; in test [2], “less than 0.78 grams per hectare”.

Values taken from US7375122B2, “Compounds useful as pesticides” (Dow AgroSciences LLC, priority 2002, dated 2008).
